From patent US20230374103A1, “Wnt SIGNALING PATHWAY INHIBITOR” (OSAKA UNIVERSITY, priority 2020, published 2023)
Residues, ends and D or L forms follow the SMILES beside them.

Key:
A549 cells = assay: Proliferation assay (MTT) of A549 cells; type: cell-based, human
Experimental: The influence RANKL peptide on the proliferation of A549 cells (human lung alveolar basal epithelial cells: high expression of both LGR4 and RSPO3 was confirmed) was examined. Specifically, the following procedure was performed. MHP1 was administered at 1 ng/ml to 100 μg/ml to A549 cells, and the cell viability was calculated by MTT assay after 40 hours.

binding of LGR4 to RSPO1 = target: T1, binding of LGR4 to RSPO1 (Homo sapiens, UniProt Q9BXB1); assay: Competitive binding analysis of LGR4 and biotinylated RSPO1 (Flag-LGR4 transfected HEK293 cells, immunoprecipitation); settings: 50 ng/mL biotinylated RSPO1, 2 hours, MHP1-7 (FIG. 4)
T1 construct: host or cells: HEK293
T1 sequence (Q9BXB1 25-951): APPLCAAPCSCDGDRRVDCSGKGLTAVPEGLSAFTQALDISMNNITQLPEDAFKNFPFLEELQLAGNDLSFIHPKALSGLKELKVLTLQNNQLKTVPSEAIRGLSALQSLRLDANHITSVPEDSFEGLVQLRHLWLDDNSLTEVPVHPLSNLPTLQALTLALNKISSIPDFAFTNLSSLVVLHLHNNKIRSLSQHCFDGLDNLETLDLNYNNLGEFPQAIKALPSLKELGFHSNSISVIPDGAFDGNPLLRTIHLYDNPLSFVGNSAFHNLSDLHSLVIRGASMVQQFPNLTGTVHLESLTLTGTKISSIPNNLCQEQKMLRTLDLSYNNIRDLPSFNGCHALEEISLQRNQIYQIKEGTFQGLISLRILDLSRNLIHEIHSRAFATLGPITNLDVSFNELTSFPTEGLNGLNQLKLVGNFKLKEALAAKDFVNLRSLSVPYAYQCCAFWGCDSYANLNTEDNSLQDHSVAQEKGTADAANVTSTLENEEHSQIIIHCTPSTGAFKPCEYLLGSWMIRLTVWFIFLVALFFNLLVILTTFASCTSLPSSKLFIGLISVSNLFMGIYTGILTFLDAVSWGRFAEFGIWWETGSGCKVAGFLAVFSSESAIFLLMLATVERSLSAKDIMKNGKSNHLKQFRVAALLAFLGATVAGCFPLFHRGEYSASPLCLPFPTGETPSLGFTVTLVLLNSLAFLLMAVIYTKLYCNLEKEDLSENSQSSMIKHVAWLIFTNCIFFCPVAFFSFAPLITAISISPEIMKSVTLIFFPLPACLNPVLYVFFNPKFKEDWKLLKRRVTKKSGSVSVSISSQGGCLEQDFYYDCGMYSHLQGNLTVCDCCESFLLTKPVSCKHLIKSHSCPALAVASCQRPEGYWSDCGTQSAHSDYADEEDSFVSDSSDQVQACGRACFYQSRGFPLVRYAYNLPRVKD
Experimental: HEK293 cells were incubated with 100 μg/mL of RANKL peptide or biotinylated RANKL peptide for 30 minutes, followed by immunoprecipitation. For competitive binding analysis, HEK293 cells were transfected with a Flag-tagged LGR4 expression plasmid (OriGene Technologies) for 48 hours, and incubated for 2 hours in the presence of 50 ng/mL L of recombinant human biotinylated RSPO1 (R&D System, #BT4645) and RANKL peptide. For immunoprecipitation, the cells were washed twice with cold PBS and dissolved in a lysis buffer (50 mM Tris-HCL, pH 7.4, 150 mM NaCl, 5 mM EDTA, 0.5% NP40, 10% glycerol and protease inhibitor cocktail (Roche)). The sample was centrifuged at 16,000 g for 10 minutes. The supernatant was collected, and the protein concentration was determined. Immunoprecipitation from samples containing equal amounts of protein was performed at 4° C. overnight using high-capacity streptavidin agarose (Thermo Fisher Scientific or Anti-FLAG M2 Affinity Gel (Sigma-Aldrich), followed by washing twice with a lysis buffer, and elution with 2× Laemmli Sample Buffer at 37° C. for 30 minutes before Western blotting. The blotted membrane was incubated with the primary antibody at 4° C. overnight, washed with TBS containing 0.1% Tween-20, then incubated with the HRP-conjugated secondary antibody at room temperature for 1 hour, and then incubated with Chemi-Lumi One L (Nacalai Tesque). […]

## CC[C@H](C)[C@H](NC(=O)[C@H](CO)NC(=O)[C@@H](NC(=O)[C@H](CCCCN)NC(=O)[C@@H](NC(=O)[C@@H](NC(=O)[C@H](Cc1ccc(O)cc1)NC(=O)[C@@H](NC(=O)[C@H](CCSC)NC(=O)[C@H](CC(C)C)NC(C)=O)C(C)C)C(C)C)C(C)C)[C@@H](C)O)C(=O)N[C@@H](CCCCN)C(=O)N[C@H](C(=O)N1CCC[C@H]1C(=O)N[C@@H](CO)C(=O)N[C@@H](CO)C(=O)N[C@@H](Cc1c[nH]cn1)C(=O)N[C@@H](CC(N)=O)C(=O)N[C@@H](CC(C)C)C(=O)N[C@@H](CCSC)C(=O)N[C@@H](CCCCN)C(=O)NCC(=O)NCC(=O)N[C@@H](CO)C(=O)N[C@H](C(=O)N[C@@H](CCCCN)C(=O)N[C@@H](CC(N)=O)C(=O)N[C@@H](Cc1c[nH]c2ccccc12)C(=O)N[C@@H](CO)C(=O)NCC(=O)N[C@@H](CC(N)=O)C(N)=O)[C@@H](C)O)[C@@H](C)CC [MHP1-7] (Ac-LMVYVVKTSIKIPSSHNLMKGGSTKNWSGN-NH2)
A549 cells; A549 cells, 1 ng/ml to 100 μg/ml, 40 hours, MHP1-AcN (FIG. 14)
  proliferation of lung cancer cells (cell viability, MTT): inhibited
A549 cells; along with the inhibition of the proliferation
  Wnt signaling pathway in A549 cells: inhibited
Binding of LGR4 to RSPO1
  RSPO1 in the total cell lysate and the lysate immunoprecipitated with FLAG (Streptavidin-HRP): reduced
  binding of LGR4 to RSPO1: inhibits
